Source: PMC3905694, “Targeting Low-Druggability Bromodomains: Fragment Based Screening and Inhibitor Design against the BAZ2B Bromodomain” (Journal of Medicinal Chemistry, 2013)

Tests used:
CREBBP = target: T1, CREBBP (Homo sapiens, UniProt Q92793); experiment: AlphaScreen fragment screen; assay type: binding; conditions: fragment library screen
T1 construct: screened against the bromodomains of BRD2-BD1 and CREBBP

BRD2-BD1 = target: T2, BRD2-BD1 (Homo sapiens, UniProt P25440); experiment: AlphaScreen fragment screen; assay type: binding; conditions: fragment library screen
T2 construct: screened against the bromodomains of BRD2-BD1 and CREBBP

[1] = Solubility (qualitative remarks); assay type: physicochemical; conditions: in words
BAZ2B bromodomain [2] = target: T3, BAZ2B bromodomain (Homo sapiens, UniProt Q9UIF8); experiment: Direct ITC titrations; assay type: binding; parameters: successful targeting of the challenging BAZ2B bromodomain; made in house; host or cells: E. coli BL21(DE3); conditions: in words
T3 sequence (Q9UIF8 2060-2164 limits assumed): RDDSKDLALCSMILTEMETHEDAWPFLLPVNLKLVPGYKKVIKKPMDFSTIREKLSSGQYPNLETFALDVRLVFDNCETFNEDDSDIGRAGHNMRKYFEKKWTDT

BAZ2B bromodomain [3] = target: T3, BAZ2B bromodomain; experiment: AlphaLISA competitive peptide displacement (antipentahis acceptor beads); conditions: in words

T1 sequence (Q92793 1085-1192 limits assumed): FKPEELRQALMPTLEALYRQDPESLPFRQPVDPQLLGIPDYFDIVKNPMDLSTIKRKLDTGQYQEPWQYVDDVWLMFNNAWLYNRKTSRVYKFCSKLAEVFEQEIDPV
T2 sequence (P25440 74-180 limits assumed): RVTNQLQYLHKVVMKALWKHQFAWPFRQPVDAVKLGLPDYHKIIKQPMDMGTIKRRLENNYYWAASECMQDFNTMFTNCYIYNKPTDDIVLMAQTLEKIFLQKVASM

SMILES | hit in fragment screen (CREBBP) | hit in fragment screen (BRD2-BD1) | solubility [1] | also measured
CNC(=O)c1cc(C)n(C)n1 [Compound 5] | hits | hits |  | 
CC(=O)N1CCc2[nH]c3ccc(Cl)cc3c2C1 [Compound 6] | hits | hits | poor solubility | 
CC(=S)N1CCc2[nH]c3ccc(Cl)cc3c2C1 [Compound 38] |  |  |  | binding to the protein (BAZ2B bromodomain [2]): Neither of these bound
NC(=S)N1CCc2[nH]c3ccc(Cl)cc3c2C1 [Compound 39] |  |  |  | binding to the protein (BAZ2B bromodomain [3]): Neither of these bound
CNC(=O)N1CCc2[nH]c3ccc(Cl)cc3c2C1 [Compound 40] |  |  | improved solubility | 
